target: T1, VLA-4 (Homo sapiens, UniProt P05556+P13612); assay: Adhesion of Jurkat cells to immobilized VCAM-1 (domains 1-3); type: cell-based; design: scale not given here; conditions: adhesion of CFSE-labeled Jurkat cells to recombinant human VCAM-1 (domains 1-3) coated plates; compounds as yielded by solid phase synthesis, purity about 40-90%
T1 construct: host or cells: Jurkat clone E6-1
Description: In Vitro Assay: Adhesion of Jurkat Cells to Immobilized VCAM-1 (Domains 1-3).
Preparation of Fluorescence Labeled Jurkat Cells:
Jurkat cells (American Type Culture Collection, Clone E6-1, ATCC TIB-152) were cultured in RPMI 1640 medium (Nikken Bio Medical Laboratory, CM1101) supplemented with 10% fetal bovine serum (Hyclone, A-1119-L), 100 U/ml penicilin (Gibco BRL, 15140-122) and 100 μg/ml streptomycin (Gibco BRL, 15140-122) in a humidified incubator at 37° C. with 5% CO2.
Jurkat cells were incubated with phosphate balanced solution (PBS, Nissui, 05913) containing 25 μM of 5(-and-6)-carboxyfluorescein diacetate, succinimidyle ester (CFSE, Dojindo Laboratories, 345-06441) for 20 min at room temperature while gently swirling every 5 min. After centrifugation at 1000 rpm for 5 min, the cell pellet was resuspended with adhesion assay buffer at a cell density of 2×10^6 cells/ml. The adhesion assay buffer was composed of 24 mM Tris-HCl (pH 7.4), 137 mM NaCl, 27 mM KCl, 4 mM glucose, 0.1% bovine serum albumin (BSA, Sigma, A9647) and 2 mM MnCl2.
Preparation of VCAM-1 (Extracellular Domains 1-3):
Complementary DNA (cDNA) encoding 7-domain form of VCAM-1 (GenBank accession #M60335) was obtained using Rapid-Screen™ cDNA library panels (OriGene Technologies, Inc) at Takara Gene Analysis Center (Shiga, Japan). The primers used were 5′-CCAAGGCAGAGTACGCAAAC-3′ (sence) and 5′-TGGCAGGTATTATTAAGGAG-3′ (antisense). PCR amplification of the 3-domain VCAM-1 cDNA was perform using Pfu DNA polymerase (Stratagene) with the following sets of primers: (U-VCAMd1-3) 5′-CCATATGGTACCTGATCAATTTAAAATCGAGACCACCCCAGAA-3′; (L-VCAMd1-3) 5′-CCATATAGCAATCCTAGGTCCAGGGGAGATCTCAACAGTAAA-3′. PCR cycle was 94° C. for 45 sec, 55° C. for 45 sec, 72° C. for 2 min, repeating 15 cycles. After the purification of the PCR product, the fragment was digested with KpnI-AvrII. The digested fragment was ligated into pBluescript IISK(−) (Strategene), which was linealized by digesting with KpnI-XhoI. The ligation was followed by transformation to a Dam/Dcm methylase-free E. coli strain SCS110 (Strategene) to create the donor plasmid pH7. To direct VCAM-1 molecule into the insect cell secretory pathway, the VCAM-1 coding sequence was fused to signal peptide sequence of honeybee melittin. The resulting melittin-VCAM fusion was placed in correct orientation to the baculoviris polyhedrin promoter. Baculovirus transfer vector containing first 3-domain form VCAM-1 (pH10) was constructed by ligation of 0.9 kb fragment from AvrII/Klenow/BclI digests of pH7 into SalI/Klenow/BamHI digests of pMelBacB (Invitrogen). Recombinant baculovirus was generated by using Bac-N-Blue™ Transfection kit (Invitrogen) according to the manufacture's instruction. The recombinant virus was amplified by infection to High-Five™ insect cells for 5-6 days, and virus titer was determined by plaque assay.
High-Five™ insect cells were pelleted in a 225 ml conical tube by centrifugation at 1000 rpm for 5 min After discarding the supernatant, the pellet was resuspended in 1.5×10^9 pfu (MOI=5) of high-titer virus solution, followed by incubation for 1.5 hours at room temperature. The cells were pelleted again and washed once in fresh Express Five™ serum free medium. The cells were pelleted again and finally, resuspended in 200 ml of fresh Express Five™ medium, transferred to a 1,000 ml shaker flask, and incubated in a shaker at 27° C., 130 rpm, for 48 hours before the culture supernatant was collected. The purification of 3-domain form of VCAM-1 from the culture supernatant was performed by one-step anion exchange chromatography. Protein concentration was determined by using Coomassie protein assay reagent (Pierce) according to the manufacture's instruction.
Preparation of Microtiter Plates:
Recombinant human VCAM-1 (extracellular domains 1-3) was dissolved at 0.5 μg/ml in PBS. […]

T1 sequence (P13612 34-1032): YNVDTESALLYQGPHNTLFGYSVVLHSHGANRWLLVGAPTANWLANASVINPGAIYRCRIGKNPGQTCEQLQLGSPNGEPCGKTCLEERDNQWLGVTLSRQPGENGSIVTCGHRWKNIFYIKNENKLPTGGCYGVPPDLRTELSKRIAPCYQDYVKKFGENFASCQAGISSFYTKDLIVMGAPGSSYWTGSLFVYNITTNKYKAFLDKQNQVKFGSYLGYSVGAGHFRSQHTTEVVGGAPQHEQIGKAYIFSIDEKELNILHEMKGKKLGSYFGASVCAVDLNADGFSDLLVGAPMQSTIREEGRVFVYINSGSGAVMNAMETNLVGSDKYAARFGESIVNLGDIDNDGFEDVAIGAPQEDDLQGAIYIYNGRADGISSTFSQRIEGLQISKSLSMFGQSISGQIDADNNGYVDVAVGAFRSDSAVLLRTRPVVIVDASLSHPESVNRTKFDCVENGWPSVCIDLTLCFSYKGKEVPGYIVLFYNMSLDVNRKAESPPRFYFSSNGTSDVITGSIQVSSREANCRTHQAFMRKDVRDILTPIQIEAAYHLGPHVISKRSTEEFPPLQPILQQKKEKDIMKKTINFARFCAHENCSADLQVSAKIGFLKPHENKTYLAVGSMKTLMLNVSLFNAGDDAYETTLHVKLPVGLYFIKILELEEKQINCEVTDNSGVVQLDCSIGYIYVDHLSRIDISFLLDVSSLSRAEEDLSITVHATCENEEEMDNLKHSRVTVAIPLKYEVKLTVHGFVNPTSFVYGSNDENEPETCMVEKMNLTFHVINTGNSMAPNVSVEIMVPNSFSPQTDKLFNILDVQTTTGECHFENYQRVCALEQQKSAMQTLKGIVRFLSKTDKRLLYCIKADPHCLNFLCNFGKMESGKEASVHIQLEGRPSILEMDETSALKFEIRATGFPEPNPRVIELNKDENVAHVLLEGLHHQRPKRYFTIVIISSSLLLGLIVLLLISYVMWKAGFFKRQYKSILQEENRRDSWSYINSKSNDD
T1 sequence (P05556 21-798): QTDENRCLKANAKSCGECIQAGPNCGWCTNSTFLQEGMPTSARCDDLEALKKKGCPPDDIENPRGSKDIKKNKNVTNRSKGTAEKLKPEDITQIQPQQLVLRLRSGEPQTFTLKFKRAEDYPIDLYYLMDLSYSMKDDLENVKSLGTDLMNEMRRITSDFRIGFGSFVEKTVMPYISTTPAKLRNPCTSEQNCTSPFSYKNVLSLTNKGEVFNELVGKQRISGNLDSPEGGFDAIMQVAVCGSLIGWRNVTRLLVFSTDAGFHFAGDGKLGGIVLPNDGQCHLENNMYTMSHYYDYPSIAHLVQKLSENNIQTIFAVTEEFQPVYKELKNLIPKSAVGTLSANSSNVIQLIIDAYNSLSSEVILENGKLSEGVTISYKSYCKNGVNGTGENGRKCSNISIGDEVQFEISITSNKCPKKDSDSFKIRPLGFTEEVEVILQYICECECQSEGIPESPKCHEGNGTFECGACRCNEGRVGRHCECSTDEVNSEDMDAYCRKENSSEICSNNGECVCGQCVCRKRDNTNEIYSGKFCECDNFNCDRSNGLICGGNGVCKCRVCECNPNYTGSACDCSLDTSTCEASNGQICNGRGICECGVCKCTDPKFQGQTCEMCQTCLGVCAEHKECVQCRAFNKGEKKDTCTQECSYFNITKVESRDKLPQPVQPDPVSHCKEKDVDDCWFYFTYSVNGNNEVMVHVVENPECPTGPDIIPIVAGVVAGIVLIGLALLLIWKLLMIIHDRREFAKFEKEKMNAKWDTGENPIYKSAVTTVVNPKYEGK

Structure (SMILES)	IC50
O=C(N[C@@H](Cc1ccc(-c2ccc(Cl)cc2Cl)cc1)C(=O)O)C1CCCN(C(=O)C2CCCCC2)C1 (some centres unmarked) [Example 1.44]	C-D
Cc1cc(C)c(OC(=O)N2CCCC(C(=O)N[C@@H](Cc3ccc(-c4ccc(Cl)cc4Cl)cc3)C(=O)O)C2)c(C)c1 (some centres unmarked) [Example 1.47]	C-D
O=C(N[C@@H](Cc1ccc(-c2cc(Cl)ccc2Cl)cc1)C(=O)O)C1CCCN(C(=O)Cc2ccccc2)C1 (some centres unmarked) [Example 1.49]	C-D
O=C(N[C@@H](Cc1ccc(-c2cc(Cl)ccc2Cl)cc1)C(=O)O)C1CCCN(C(=O)c2ccc3c(c2)OCO3)C1 (some centres unmarked) [Example 1.52]	C-D
O=C(N[C@@H](Cc1ccc(-c2ccccc2)cc1)C(=O)O)C1CCCN(S(=O)(=O)c2c(Cl)cccc2Cl)C1 (some centres unmarked) [Example 1.59]	C-D
O=C(N[C@@H](Cc1ccc(-c2ccccc2)cc1)C(=O)O)C1CCCN(S(=O)(=O)c2ccccc2C(F)(F)F)C1 (some centres unmarked) [Example 1.61]	C-D
COc1ccc(Cl)cc1S(=O)(=O)N1CCCC(C(=O)N[C@@H](Cc2ccc(-c3ccccc3)cc2)C(=O)O)C1 (some centres unmarked) [Example 1.62]	C-D
O=C(N[C@@H](Cc1ccc(-c2ccccc2)cc1)C(=O)O)C1CCCN(S(=O)(=O)Cc2ccccc2)C1 (some centres unmarked) [Example 1.63]	C-D
O=C(N[C@@H](Cc1ccc(-c2ccccc2)cc1)C(=O)O)C1CCCN(S(=O)(=O)c2cc(Cl)cc(Cl)c2)C1 (some centres unmarked) [Example 1.64]	C-D
Cc1ccc(-c2ccc(C[C@H](NC(=O)C3CCCN(S(=O)(=O)CC45CCC(CC4=O)C5(C)C)C3)C(=O)O)cc2)cc1 (some centres unmarked) [Example 1.65]	C-D
COC(=O)c1ccccc1S(=O)(=O)N1CCCC(C(=O)N[C@@H](Cc2ccc(-c3ccc(C)cc3)cc2)C(=O)O)C1 (some centres unmarked) [Example 1.67]	C-D
COc1ccc(Cl)cc1S(=O)(=O)N1CCCC(C(=O)N[C@@H](Cc2ccc(-c3ccc(C)cc3)cc2)C(=O)O)C1 (some centres unmarked) [Example 1.72]	C-D
Cc1ccc(-c2ccc(C[C@H](NC(=O)C3CCCN(S(=O)(=O)Cc4ccccc4)C3)C(=O)O)cc2)cc1 (some centres unmarked) [Example 1.73]	C-D
COc1ccc(-c2ccc(C[C@H](NC(=O)C3CCCN(S(=O)(=O)CC45CCC(CC4=O)C5(C)C)C3)C(=O)O)cc2)cc1 (some centres unmarked) [Example 1.75]	C-D
COc1ccc(-c2ccc(C[C@H](NC(=O)C3CCCN(S(=O)(=O)c4ccc(C)cc4)C3)C(=O)O)cc2)cc1 (some centres unmarked) [Example 1.76]	C-D
COc1ccc(-c2ccc(C[C@H](NC(=O)C3CCCN(S(=O)(=O)c4c(Cl)cccc4Cl)C3)C(=O)O)cc2)cc1 (some centres unmarked) [Example 1.79]	C-D
COc1ccc(-c2ccc(C[C@H](NC(=O)C3CCCN(S(=O)(=O)c4ccccc4C(F)(F)F)C3)C(=O)O)cc2)cc1 (some centres unmarked) [Example 1.80]	C-D
COc1ccc(-c2ccc(C[C@H](NC(=O)C3CCCN(S(=O)(=O)Cc4ccccc4)C3)C(=O)O)cc2)cc1 (some centres unmarked) [Example 1.82]	C-D
COc1ccc(-c2ccc(C[C@H](NC(=O)C3CCCN(S(=O)(=O)c4cc(Cl)cc(Cl)c4)C3)C(=O)O)cc2)cc1 (some centres unmarked) [Example 1.83]	C-D
Cc1ccccc1-c1ccc(C[C@H](NC(=O)C2CCCN(S(=O)(=O)CC34CCC(CC3=O)C4(C)C)C2)C(=O)O)cc1 (some centres unmarked) [Example 1.84]	C-D

Continued, values first:

IC50	Structure (SMILES)
B-C	Cc1ccc(C(=O)N2CCCC(C(=O)N[C@@H](Cc3ccc(-c4ccc(Cl)cc4Cl)cc3)C(=O)O)C2)cc1 (some centres unmarked) [Example 1.42]
C-D	O=C(N[C@@H](Cc1ccc(-c2ccc(Cl)cc2Cl)cc1)C(=O)O)C1CCCN(C(=O)c2ccc3c(c2)OCO3)C1 (some centres unmarked) [Example 1.43]
C-D	Cc1cc(Cl)c(CC(=O)N2CCCC(C(=O)N[C@@H](Cc3ccc(-c4ccc(Cl)cc4Cl)cc3)C(=O)O)C2)c(Cl)c1 (some centres unmarked) [Example 1.45]
C-D	Cc1ccc(C(=O)N2CCCC(C(=O)N[C@@H](Cc3ccc(-c4cc(Cl)ccc4Cl)cc3)C(=O)O)C2)cc1 (some centres unmarked) [Example 1.51]
C-D	O=C(N[C@@H](Cc1ccc(-c2cc(Cl)ccc2Cl)cc1)C(=O)O)C1CCCN(C(=O)C2CCCCC2)C1 (some centres unmarked) [Example 1.53]
C-D	CC1(C)C2CCC1(CS(=O)(=O)N1CCCC(C(=O)N[C@@H](Cc3ccc(-c4ccccc4)cc3)C(=O)O)C1)C(=O)C2 (some centres unmarked) [Example 1.55]
C-D	COC(=O)c1ccccc1S(=O)(=O)N1CCCC(C(=O)N[C@@H](Cc2ccc(-c3ccccc3)cc2)C(=O)O)C1 (some centres unmarked) [Example 1.57]
C-D	O=C(N[C@@H](Cc1ccc(-c2ccccc2)cc1)C(=O)O)C1CCCN(S(=O)(=O)c2ccc3ccccc3c2)C1 (some centres unmarked) [Example 1.58]
C-D	COc1ccc(S(=O)(=O)N2CCCC(C(=O)N[C@@H](Cc3ccc(-c4ccccc4)cc3)C(=O)O)C2)cc1OC (some centres unmarked) [Example 1.60]
C-D	Cc1ccc(-c2ccc(C[C@H](NC(=O)C3CCCN(S(=O)(=O)c4ccc(C)cc4)C3)C(=O)O)cc2)cc1 (some centres unmarked) [Example 1.66]
C-D	Cc1ccc(-c2ccc(C[C@H](NC(=O)C3CCCN(S(=O)(=O)c4ccc5ccccc5c4)C3)C(=O)O)cc2)cc1 (some centres unmarked) [Example 1.68]
C-D	Cc1ccc(-c2ccc(C[C@H](NC(=O)C3CCCN(S(=O)(=O)c4c(Cl)cccc4Cl)C3)C(=O)O)cc2)cc1 (some centres unmarked) [Example 1.69]
C-D	COc1ccc(S(=O)(=O)N2CCCC(C(=O)N[C@@H](Cc3ccc(-c4ccc(C)cc4)cc3)C(=O)O)C2)cc1OC (some centres unmarked) [Example 1.70]
C-D	Cc1ccc(-c2ccc(C[C@H](NC(=O)C3CCCN(S(=O)(=O)c4ccccc4C(F)(F)F)C3)C(=O)O)cc2)cc1 (some centres unmarked) [Example 1.71]
C-D	Cc1ccc(-c2ccc(C[C@H](NC(=O)C3CCCN(S(=O)(=O)c4cc(Cl)cc(Cl)c4)C3)C(=O)O)cc2)cc1 (some centres unmarked) [Example 1.74]
C-D	COC(=O)c1ccccc1S(=O)(=O)N1CCCC(C(=O)N[C@@H](Cc2ccc(-c3ccc(OC)cc3)cc2)C(=O)O)C1 (some centres unmarked) [Example 1.77]
C-D	COc1ccc(-c2ccc(C[C@H](NC(=O)C3CCCN(S(=O)(=O)c4ccc5ccccc5c4)C3)C(=O)O)cc2)cc1 (some centres unmarked) [Example 1.78]
C-D	COc1ccc(-c2ccc(C[C@H](NC(=O)C3CCCN(S(=O)(=O)c4cc(Cl)ccc4OC)C3)C(=O)O)cc2)cc1 (some centres unmarked) [Example 1.81]

same assay, conditions: adhesion of CFSE-labeled Jurkat cells to recombinant human VCAM-1 (domains 1-3) coated plates; compounds as yielded by solid phase synthesis, purity about 40-90%; read-out: IC50

Structure (SMILES)	IC50 [nM]
COc1ccccc1C(=O)N1CCCC(C(=O)N[C@@H](Cc2ccc(-c3ccc(Cl)cc3Cl)cc2)C(=O)O)C1 (some centres unmarked) [Example 1.46]	2000 to 10000
Cc1ccc(S(=O)(=O)N2CCCC(C(=O)N[C@@H](Cc3ccc(-c4ccccc4)cc3)C(=O)O)C2)cc1 (some centres unmarked) [Example 1.56]	500 to 2000
Cc1ccc(S(=O)(=O)N2CCCC(C(=O)N[C@@H](Cc3ccc(-c4ccccc4C)cc3)C(=O)O)C2)cc1 (some centres unmarked) [Example 1.85]	500 to 2000

Continued, values first:

IC50 [nM]	Structure (SMILES)
2000 to 10000	O=C(N[C@@H](Cc1ccc(-c2ccc(Cl)cc2Cl)cc1)C(=O)O)C1CCCN(C(=O)OC2CCCC2)C1 (some centres unmarked) [Example 1.48]
2000 to 10000	O=C(N[C@@H](Cc1ccc(-c2cc(Cl)ccc2Cl)cc1)C(=O)O)C1CCCN(C(=O)c2cccc(Cl)c2)C1 (some centres unmarked) [Example 1.50]
2000 to 10000	O=C(N[C@@H](Cc1ccc(-c2cc(Cl)ccc2Cl)cc1)C(=O)O)C1CCCN(C(=O)c2ccccc2Cl)C1 (some centres unmarked) [Example 1.54]
